Target: T1, Recombinant human HSD17B13 enzyme (Homo sapiens, UniProt Q7Z5P4)
T1 sequence (Q7Z5P4 20-300): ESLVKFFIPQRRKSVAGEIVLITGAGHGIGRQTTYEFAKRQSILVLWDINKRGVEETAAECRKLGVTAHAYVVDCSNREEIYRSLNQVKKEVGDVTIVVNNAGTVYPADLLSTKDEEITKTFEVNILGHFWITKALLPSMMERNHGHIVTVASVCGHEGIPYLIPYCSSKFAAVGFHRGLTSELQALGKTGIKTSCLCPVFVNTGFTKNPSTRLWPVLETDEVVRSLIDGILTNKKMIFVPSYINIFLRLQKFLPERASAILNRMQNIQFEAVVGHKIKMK
Assay: HSD17b13 NAD(P)H-Glo biochemical assay
Details: for IC50: 50 uM estradiol, 1 mM NAD+, NAD(P)H-Glo luminescence, read-out: HSD17β13 IC50
Procedure, shortened: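 Recombinant human HSD17B13 in 20 mM Tris pH7.4 with 0.002% Tween-20 and 0.02% BSA was preincubated with inhibitor for 20 minutes at RT. The reaction ran 3 hours at 37° C with 50 uM estradiol and 1 mM NAD+ (final). NADH formed was detected by NAD(P)H-Glo luminescence after 1 hour at RT.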

| IC50 | inhibition at 10 µM (3 h, at 10 uM compound, read-out: HSD17β13 % at 10 uM) | SMILES |
| --- | --- | --- |
| < 100 nM | – | CC1(C)CCN(c2ccc(-n3ncc4cc(F)c(O)c(F)c43)cc2)C1 [Compound 23.11, 1-(4-(3,3-Dimethylpyrrolidin-1-yl)phenyl)-5,7-difluoro-1H-indazol-6-ol] |
| 100 to 1000 nM | – | Oc1c(F)cc2cnn(-c3ccc(N4CCC4)cc3)c2c1F [Compound 23.12, 1-(4-(Azetidin-1-yl)phenyl)-5,7-difluoro-1H-indazol-6-ol] |
| < 100 nM | – | CC1(C)CN(c2ccc(-n3ncc4cc(F)c(O)c(F)c43)cc2)C1 [Compound 23.13, 1-(4-(3,3-Dimethylazetidin-1-yl)phenyl)-5,7-difluoro-1H-indazol-6-ol] |
| 100 to 1000 nM | – | CS(=O)(=O)N1CCCN(c2ccc(-n3ncc4cc(F)c(O)c(F)c43)cc2)CC1 [Compound 23.14, 5,7-Difluoro-1-(4-(4-(methylsulfonyl)-1,4-diazepan-1-yl)phenyl)-1H-indazol-6-ol] |
| 100 to 1000 nM | – | CS(=O)(=O)N1C2CC1CN(c1ccc(-n3ncc4cc(F)c(O)c(F)c43)cc1)C2 [Compound 23.15, 5,7-Difluoro-1-(4-(6-(methylsulfonyl)-3,6-diazabicyclo[3.1.1]heptan-3-yl)phenyl)-1H-indazol-6-ol] |
| 100 to 1000 nM | – | Oc1c(F)cc2cnn(-c3ccc(N4CC5CC(C4)O5)cc3)c2c1F [Compound 23.16, 1-(4-(6-Oxa-3-azabicyclo[3.1.1]heptan-3-yl)phenyl)-5,7-difluoro-1H-indazol-6-ol] |
| 100 to 1000 nM | – | CS(=O)(=O)NC1CCN(c2ccc(-n3ncc4cc(F)c(O)c(F)c43)cc2)CC1 [Compound 23.17, N-(1-(4-(5,7-Difluoro-6-hydroxy-1H-indazol-1-yl)phenyl)piperidin-4-yl)methanesulfonamide] |
| < 100 nM | – | CC1CCN(c2ccc(-n3ncc4cc(F)c(O)c(F)c43)cc2)CC1 [Compound 23.18, 5,7-Difluoro-1-(4-(4-methylpiperidin-1-yl)phenyl)-1H-indazol-6-ol] |
| < 100 nM | – | CC1(C)CCCN(c2ccc(-n3ncc4cc(F)c(O)c(F)c43)cc2)C1 [Compound 23.19, 1-(4-(3,3-Dimethylpiperidin-1-yl)phenyl)-5,7-difluoro-1H-indazol-6-ol] |
| < 100 nM | – | Oc1c(F)cc2cnn(-c3ccc(N4CCC(F)(F)CC4)cc3)c2c1F [Compound 23.20, 1-(4-(4,4-Difluoropiperidin-1-yl)phenyl)-5,7-difluoro-1H-indazol-6-ol] |
| < 100 nM | – | CC1(C#N)CCN(c2ccc(-n3ncc4cc(F)c(O)c(F)c43)cc2)CC1 [Compound 23.21, 1-(4-(5,7-Difluoro-6-hydroxy-1H-indazol-1-yl)phenyl)-4-methylpiperidine-4-carbonitrile] |
| 100 to 1000 nM | – | CC1(O)CCN(c2ccc(-n3ncc4cc(F)c(O)c(F)c43)cc2)CC1 [Compound 23.22, 5,7-Difluoro-1-(4-(4-hydroxy-4-methylpiperidin-1-yl)phenyl)-1H-indazol-6-ol] |
| < 100 nM | – | Oc1c(F)cc2cnn(-c3ccc(N4CCC5(CC4)CC5)cc3)c2c1F [Compound 23.23, 1-(4-(6-Azaspiro[2.5]octan-6-yl)phenyl)-5,7-difluoro-1H-indazol-6-ol] |
| < 100 nM | – | Oc1c(F)cc2cnn(-c3ccc(N4CCC5(CCC5)CC4)cc3)c2c1F [Compound 23.24, 1-(4-(7-Azaspiro[3.5]nonan-7-yl)phenyl)-5,7-difluoro-1H-indazol-6-ol] |
| < 100 nM | – | Oc1c(F)cc2cnn(-c3ccc(N4CCC5(CC4)COC5)cc3)c2c1F [Compound 23.25, 1-(4-(2-Oxa-7-azaspiro[3.5]nonan-7-yl)phenyl)-5,7-difluoro-1H-indazol-6-ol] |
| < 100 nM | – | Oc1c(F)cc2cnn(-c3ccc(N4CC5(CCOCC5)C4)cc3)c2c1F [Compound 23.26, 1-(4-(7-Oxa-2-azaspiro[3.5]nonan-2-yl)phenyl)-5,7-difluoro-1H-indazol-6-ol] |

| IC50 | inhibition at 10 µM (3 h, at 10 uM compound, read-out: HSD17β13 % at 10 uM) | SMILES |
| --- | --- | --- |
| < 100 nM | – | CC1(C#N)CN(c2ccc(-n3ncc4cc(F)c(O)c(F)c43)cc2)C1 [Compound 23.27, 1-(4-(5,7-Difluoro-6-hydroxy-1H-indazol-1-yl)phenyl)-3-methylazetidine-3-carbonitrile] |
| 100 to 1000 nM | – | Oc1c(F)cc2cnn(-c3ccc(N4CCC5(CC4)CNC5)cc3)c2c1F [Compound 23.28, 1-(4-(2,7-Diazaspiro[3.5]nonan-7-yl)phenyl)-5,7-difluoro-1H-indazol-6-ol] |
| < 100 nM | – | CCC1(CC)CN(c2ccc(-n3ncc4cc(F)c(O)c(F)c43)cc2)C1 [Compound 24, 1-(4-(3,3-Diethylazetidin-1-yl)phenyl)-5,7-difluoro-1H-indazol-6-ol] |
| 100 to 1000 nM | – | CN1CCN(c2ccc(-n3ncc4cc(F)c(O)c(F)c43)cc2)CC1 [Compound 24.1, 5,7-Difluoro-1-(4-(4-methylpiperazin-1-yl)phenyl)-1H-indazol-6-ol] |
| 100 to 1000 nM | – | CC(C)N1CCN(c2ccc(-n3ncc4cc(F)c(O)c(F)c43)cc2)CC1 [Compound 24.2, 5,7-Difluoro-1-(4-(4-isopropylpiperazin-1-yl)phenyl)-1H-indazol-6-ol] |
| < 100 nM | – | CC(C)C1CN(c2ccc(-n3ncc4cc(F)c(O)c(F)c43)cc2)C1 [Compound 24.3, 5,7-Difluoro-1-(4-(3-isopropylazetidin-1-yl)phenyl)-1H-indazol-6-ol] |
| < 100 nM | – | CCC1(C)CN(c2ccc(-n3ncc4cc(F)c(O)c(F)c43)cc2)C1 [Compound 24.4, 1-(4-(3-Ethyl-3-methylazetidin-1-yl)phenyl)-5,7-difluoro-1H-indazol-6-ol] |
| < 100 nM | – | CCC1(C)CCN(c2ccc(-n3ncc4cc(F)c(O)c(F)c43)cc2)CC1 [Compound 24.5, 1-(4-(4-Ethyl-4-methylpiperidin-1-yl)phenyl)-5,7-difluoro-1H-indazol-6-ol] |
| < 100 nM | – | CC(C)C1(C)CCN(c2ccc(-n3ncc4cc(F)c(O)c(F)c43)cc2)CC1 [Compound 24.6, 5,7-Difluoro-1-(4-(4-isopropyl-4-methylpiperidin-1-yl)phenyl)-1H-indazol-6-ol] |
| < 100 nM | – | CCC1(CC)CCN(c2ccc(-n3ncc4cc(F)c(O)c(F)c43)cc2)CC1 [Compound 24.7, 1-(4-(4,4-Diethylpiperidin-1-yl)phenyl)-5,7-difluoro-1H-indazol-6-ol] |
| < 100 nM | – | CC1(C(F)(F)F)CCN(c2ccc(-n3ncc4cc(F)c(O)c(F)c43)cc2)CC1 [Compound 24.8, 5,7-Difluoro-1-(4-(4-methyl-4-(trifluoromethyl)piperidin-1-yl)phenyl)-1H-indazol-6-ol] |
| < 100 nM | – | C[C@H]1CN(c2ccc(-n3ncc4cc(F)c(O)c(F)c43)cc2)C[C@H](C)O1 [Compound 24.9, 1-(4-((2S,6S)-2,6-Dimethylmorpholino)phenyl)-5,7-difluoro-1H-indazol-6-ol] |
| < 100 nM | – | C[C@@H]1CN(c2ccc(-n3ncc4cc(F)c(O)c(F)c43)cc2)C[C@@H](C)O1 [Compound 24.10, 1-(4-((2R,6R)-2,6-Dimethylmorpholino)phenyl)-5,7-difluoro-1H-indazol-6-ol] |
| 100 to 1000 nM | – | O=S1(=O)CCC2(CC1)CN(c1ccc(-n3ncc4cc(F)c(O)c(F)c43)cc1)C2 [Compound 24.11, 2-(4-(5,7-Difluoro-6-hydroxy-1H-indazol-1-yl)phenyl)-7-thia-2-azaspiro[3.5]nonane 7,7-dioxide] |
| – | 35% | Cc1c(O)c(F)cc2cnn(-c3ccc(N4CCN(S(C)(=O)=O)CC4)cc3)c12 [Compound 24.12, 5-Fluoro-7-methyl-1-(4-(4-(methylsulfonyl)piperazin-1-yl)phenyl)-1H-indazol-6-ol] |
